Measurements reported in patent US20140371165A1, “Identification of NSC23925 Isomers to Reverse Multidrug Resistance in Human Cancers” (priority 2012, published 2014).
Counter-ions that a name gives are not always drawn.

Assays:
Format in all cases: cell-based, human
SW480TR = assay: M30-Apoptosense ELISA apoptosis assay in SW480TR; settings: NSC23925b 1 μM with doxorubicin 0.5 μM, 72 hours
Method: Apoptosis was evaluated using the M30-Apoptosense ELISA assay kit (Peviva AB, Bromma, Sweden) according to the manufacturer's instructions. For the doxorubicin and NSC23925b treatment, MCF-7adr or SW480TR cells were seeded at 8,000 cells/per well in a 96-well plate for 24 hours before treatment. The cells were then treated with 0.5 μM of doxorubicin, 1 μM of NSC23925b, or a combination of the two drugs for an additional 72 hours. The cells were then lysed by an additional […] of 10% NP40 per well, following the manufacturer's instructions for apoptosis assay.
The effect of NSC23925b on the doxorubicin induction of apoptosis was assessed in MCF-7adr or SW480TR. cell lines. Cells were treated with either doxorubicin (0.5 μM) alone, NSC23925b (1 μM) alone, or a combination of doxorubicin and NSC23925b for 72 hours. Apoptosis was scored using the M30-Apoptosense ELISA assay.

SKOV-3TR = assay: MTT cytotoxicity assay and reversal of MDR in SKOV-3TR
Source text: (§1) A panel of parental cancer cell line and their daughter resistant cell lines, displaying MDR phenotype were used in this study. Human ovarian cancer cell line SKOV-3, breast cancer cell line MCF-7 and colon cancer cell line SW480, the osteosarcoma cell line U-2OS, KHOS, uterine sarcoma cell line MESSA and its doxorubicin selected drug resistant cell line MESSA/Dx5, non-small cell lung cancer cell line H-69 and its doxorubicin selected drug resistant cell line H-69AR (overexpress MRP1) were obtained from the ATCC (Rockville, Md.). Dr. Efstathios Gonos (Institute of Biological Research & Biotechnology, Athens, Greece) provided the doxorubicin resistant U-2OS R2 (referred in the text below as U-2OSDR), KHOS R2 cell lines. Dr. Erasmus Schneider (Wadsworth Center, Albany) provided the mitoxantrane resistant breast cancer MCF-7/MX (overexpress BCRP) cell line. All the cell lines were cultured in RPMI 1640 (Invitrogen, Carlsbad, Calif.) supplemented with 10% fetal bovine serum, 100-units/ml penicillin and 100 μg/ml streptomycin (Invitrogen). Cells were incubated at 37° C. in 5% CO2-95% air atmosphere and passaged when near confluent monolayers were achieved using 2% trypsin-EDTA solution. […] The fresh chemotherapy drugs were obtained from the pharmacy at the Massachusetts General Hospital and stored at −20° C.
(§2) To evaluate for reversal of Pgp-mediated MDR, SKOV-3TR, MCF-7adr and SW480TR cell lines were seeded into 96-well tissue culture plate at 2,000 cells per well with varying concentrations of chemotherapy drugs and NSC23925b for 6 days. Cell proliferation IC50 (concentration required for 50% inhibition) and MDR reversal IC50 were determined from dose-response curves carried out in triplicate in 96-well plate. Fold of reverse resistance for individual drugs were defined as the IC50 of MDR cells without NSC23925b treatment divided by the IC50 of MDR cells treated with NSC23925b. […] Drug cytotoxicity was assessed in vitro using the MTT assay as previously described. […] Response curves were fitted with use of GraphPad PRISM 4 software (GraphPad Software).
Structure and activity relationship (SAR) of the four NSC23925 isomers for reversing MDR were evaluated in human ovarian cancer MDR cell line SKOV-3TR by MTT assay (FIGS. 1A-D). Cells were treated with the paclitaxel and NSC23925 diastereomers NSC23925a (FIG. 1A), NSC23925b (FIG. 1B), NSC23925c (FIG. 1C) and NSC23925d (FIG. 1D) in RPMI1640 complete media at the indicated concentrations. The relative sensitivity of each line to paclitaxel was determined by MTT analysis 6 days post-treatment.

MCF-7adr = assay: MTT cytotoxicity assay and reversal of MDR in MCF-7adr
Source text: as §1, §2
MCF-7adr and SW480TR cells were treated with paclitaxel (FIGS. 2A-B), doxorubicin (FIGS. 2C-D) or mitoxantrane (FIGS. 2E-F) and NSC23925b in RPMI1640 complete media at the indicated concentrations. The relative sensitivity of each line to the indicated drugs was determined by MTT analysis 6 days post-treatment.

SMILES: COc1ccc(-c2cc([C@H](O)[C@H]3CCCCN3)c3ccccc3n2)cc1 [NSC23925b, (2-(4-methoxyphenyl)quinolin-4-yl)(piperidin-2-yl)methanol hydrochloride]
- cell death / apoptosis, combination versus either drug alone (SW480TR): significantly greater cell death
- fold-reversal of drug resistance (SKOV-3TR; Doxorubicin, NSC23925b 0.1 μM): 2 fold
- fold-reversal of drug resistance (SKOV-3TR; Doxorubicin, NSC23925b 0.5 μM): 9 fold
- fold-reversal of drug resistance (SKOV-3TR; Doxorubicin, NSC23925b 1 μM): 32 fold
- fold-reversal of drug resistance (SKOV-3TR; Mitoxantrane, NSC23925b 0.1 μM): 1.2 fold
- fold-reversal of drug resistance (SKOV-3TR; Mitoxantrane, NSC23925b 0.5 μM): 2.6 fold
- fold-reversal of drug resistance (SKOV-3TR; Mitoxantrane, NSC23925b 1 μM): 8 fold
- fold-reversal of drug resistance (SKOV-3TR; Paclitaxel, NSC23925b 0.1 μM): 2 fold
- fold-reversal of drug resistance (SKOV-3TR; Paclitaxel, NSC23925b 0.5 μM): 7 fold
- fold-reversal of drug resistance (SKOV-3TR; Paclitaxel, NSC23925b 1 μM): 28 fold
- potency of isomer on reversing drug resistance (SKOV-3TR; with paclitaxel, MTT 6 days post-treatment): most potent isomer
- fold-reversal of drug resistance (MCF-7adr; Doxorubicin, NSC23925b 0.1 μM): 1.4 fold
- fold-reversal of drug resistance (MCF-7adr; Doxorubicin, NSC23925b 0.5 μM): 4 fold
- fold-reversal of drug resistance (MCF-7adr; Doxorubicin, NSC23925b 1 μM): 15 fold
- reverse paclitaxel, doxorubicin, and mitoxantrane resistance (MCF-7adr; MTT 6 days post-treatment): able to reverse
- fold-reversal of drug resistance (MCF-7adr; Mitoxantrane, NSC23925b 0.1 μM): 1.1 fold
- fold-reversal of drug resistance (MCF-7adr; Mitoxantrane, NSC23925b 0.5 μM): 3 fold
- fold-reversal of drug resistance (MCF-7adr; Mitoxantrane, NSC23925b 1 μM): 6 fold
- fold-reversal of drug resistance (MCF-7adr; Paclitaxel, NSC23925b 0.1 μM): 1.3 fold
- fold-reversal of drug resistance (MCF-7adr; Paclitaxel, NSC23925b 0.5 μM): 4 fold
- fold-reversal of drug resistance (MCF-7adr; Paclitaxel, NSC23925b 1 μM): 12 fold
